Key:
[1] = Pharmacological activity of metabolite; conditions: major metabolite
Experimental: Pyridinyl methylation of AZD0328 was a unique polar metabolite (M2) observed in dog hepatocytes. Other minor hydroxylation/oxidation and glucuronide conjugation products were detected in monkey, dog, rat, and guinea pig hepatocyte incubations and mini-pig hepatic microsome incubations. […] Analysis of plasma and urine samples from either orally or iv dosed rats confirmed N-oxide product of AZD0328 was a main product in the excretion and circulation. The percentage of AZD0328 N-oxide in the plasma from male rats was much higher than from females.

rats = experiment: Nicotine drug discrimination; conditions: rat, sc, training drug
Experimental: AZD0328 was tested for its potential to produce nicotine-like stimulus effects after subcutaneous administration in a drug-discrimination procedure (Table 3).

Compound | Pharmacological activity [1] | Response rates (rats)
[O-][N+]12CCC(CC1)C1(Cc3cccnc3O1)C2 (centres unmarked) [quinuclidinyl-N-oxide of AZD0328] | pharmacological inactive | 
CN1CCCC1c1cccnc1 (centres unmarked) [nicotine, reference compound] |  | not significantly affected

Source: patent publication US20100168146A1, “Composition Comprising (R)-Spiro[L-Azabicyclo[2.2.2]Octane-3,2'(3'H)-Furo[2,3-B]Pyridine (AZD0328) and its Use in the Treatment of Alzheimer's Disease, ADHD or Cognitive Dysfunction” (priority 2008, published 2010)
